From patent US7407775B2, “Method for identifying Listeria monocytogenes and culture medium” (Biomerieux S.A., priority 2000, dated 2008)

What was measured:
Assay type in all cases: cell-based
[1] = system: Listeria monocytogenes, Listeria innocua and Listeria ivanovii; assay: Experiment 4: comparison of Listeria strains with pairs of substrates; conditions: for results as saccharidase substrate paired with an esterase substrate: Experiment 4, semi-solid medium
Description: (§1) In Table 1 above, as in the following Tables, C represents the color of the colonies after incubation, I represents the intensity of the color, and the symbol “-” corresponds to the absence of color or intensity; finally, IT defines the incubation time. It should be noted that the intensity of the color is scored on an arbitrary scale but one which is consistent for all the biological specimens and media tested. This scale is valid for this experiment as well as all those that follow. It can be defined in the following way: • 0 corresponds to no activity, • 0.1 corresponds to a trace of color, • 0.5 corresponds to very pale coloration, • 1 corresponds to clear but low-intensity coloration, • 1.5 corresponds to a degree of coloration intermediate between scores 1 and 2, • 2 corresponds to clear coloration of moderate intensity, • 2.5 corresponds to a degree of coloration intermediate between scores 2 and 3, • 3 corresponds to intense coloration, • 3.5 corresponds to a degree of coloration intermediate between scores 3 and 4, • 4 corresponds to very intense coloration.
A stock solution of each esterase substrate at a concentration of 40 g/l was made up in a mixture of 40% Dimethylsulfoxide and 60% Tween 20. And a stock solution of each saccharidase substrate was made up in Dimethylsulfoxide. An appropriate volume of the stock solution of the esterase substrate corresponding to each of the pairs described above was added to one of eight Columbia-type media while cooling to obtain a final substrate concentration of 250 mg/l. In parallel, an appropriate volume of the stock solution of the saccharidase substrate corresponding to each of the pairs described above was added to each of the eight media in order to obtain a final concentration of between 100 and 200 mg/l (depending on the substrate). These dishes were divided into three areas and then each area was inoculated with a suspension (density=0.5 McFarland) of microorganisms taken from either the Applicant's own collection or the ATCC. The dishes were incubated for 48 hours at 37° C. The colonies which grew were examined by eye after 24 and 48 hours of incubation.
Both the color and the intensity of the color of the colonies were recorded.

[2] = system: Listeria grayi ATCC 19120; assay: Experiment 3: detecting an esterase activity in liquid medium (API-type strips); design: key: —: the symbol “-” corresponds to the absence of color or intensity; 0 corresponds to no activity; 0.1 corresponds to a trace of color; 0.5 corresponds to very pale coloration; 1 corresponds to clear but low-intensity coloration; 1.5 corresponds to a degree of coloration intermediate between scores 1 and 2; 2 corresponds to clear coloration of moderate intensity; 2.5 corresponds to a degree of coloration intermediate between scores 2 and 3; 3 corresponds to intense coloration; 3.5 corresponds to a degree of coloration intermediate between scores 3 and 4; 4 corresponds to very intense coloration; conditions: 37° C.
Description: as §1
(§2) These substrates were lyophilized in the wells of API-type strips (Registered Trademark). Before use, the substrates contained in the wells were resuspended in an agar-free Columbia-type inoculation medium. These wells were then inoculated with a suspension (density=2 McFarland) of microorganisms taken from either the Applicant's own collection or the ATCC. The strips were incubated for 8 hours at 37° C. The colonies which grew were examined by eye after 4, 6 and 8 hours of incubation.
(§3) The intensity of the color of the colonies was recorded.

Listeria innocua 166 = assay: as above; design: key: —: the symbol “-” corresponds to the absence of color or intensity; 0 corresponds to no activity; 0.1 corresponds to a trace of color; 0.5 corresponds to very pale coloration; 1 corresponds to clear but low-intensity coloration; 1.5 corresponds to a degree of coloration intermediate between scores 1 and 2; 2 corresponds to clear coloration of moderate intensity; 2.5 corresponds to a degree of coloration intermediate between scores 2 and 3; 3 corresponds to intense coloration; 3.5 corresponds to a degree of coloration intermediate between scores 3 and 4; 4 corresponds to very intense coloration; conditions: 37° C.
Description: as §1, §2, §3

Listeria innocua 171 = assay: as above; design: key: —: the symbol “-” corresponds to the absence of color or intensity; 0 corresponds to no activity; 0.1 corresponds to a trace of color; 0.5 corresponds to very pale coloration; 1 corresponds to clear but low-intensity coloration; 1.5 corresponds to a degree of coloration intermediate between scores 1 and 2; 2 corresponds to clear coloration of moderate intensity; 2.5 corresponds to a degree of coloration intermediate between scores 2 and 3; 3 corresponds to intense coloration; 3.5 corresponds to a degree of coloration intermediate between scores 3 and 4; 4 corresponds to very intense coloration; conditions: 37° C.
Description: as §1, §2, §3

Listeria ivanovii 018 = assay: as above; design: key: —: the symbol “-” corresponds to the absence of color or intensity; 0 corresponds to no activity; 0.1 corresponds to a trace of color; 0.5 corresponds to very pale coloration; 1 corresponds to clear but low-intensity coloration; 1.5 corresponds to a degree of coloration intermediate between scores 1 and 2; 2 corresponds to clear coloration of moderate intensity; 2.5 corresponds to a degree of coloration intermediate between scores 2 and 3; 3 corresponds to intense coloration; 3.5 corresponds to a degree of coloration intermediate between scores 3 and 4; 4 corresponds to very intense coloration; conditions: 37° C.
Description: as §1, §2, §3

[3] = system: Listeria monocytogenes 092; assay: as above; design: key: —: the symbol “-” corresponds to the absence of color or intensity; 0 corresponds to no activity; 0.1 corresponds to a trace of color; 0.5 corresponds to very pale coloration; 1 corresponds to clear but low-intensity coloration; 1.5 corresponds to a degree of coloration intermediate between scores 1 and 2; 2 corresponds to clear coloration of moderate intensity; 2.5 corresponds to a degree of coloration intermediate between scores 2 and 3; 3 corresponds to intense coloration; 3.5 corresponds to a degree of coloration intermediate between scores 3 and 4; 4 corresponds to very intense coloration; conditions: 37° C.
Description: as §1, §2, §3

[4] = system: Listeria monocytogenes ATCC 19115; assay: as above; design: key: —: the symbol “-” corresponds to the absence of color or intensity; 0 corresponds to no activity; 0.1 corresponds to a trace of color; 0.5 corresponds to very pale coloration; 1 corresponds to clear but low-intensity coloration; 1.5 corresponds to a degree of coloration intermediate between scores 1 and 2; 2 corresponds to clear coloration of moderate intensity; 2.5 corresponds to a degree of coloration intermediate between scores 2 and 3; 3 corresponds to intense coloration; 3.5 corresponds to a degree of coloration intermediate between scores 3 and 4; 4 corresponds to very intense coloration; conditions: 37° C.
Description: as §1, §2, §3

Listeria seeligeri 011 = assay: as above; design: key: —: the symbol “-” corresponds to the absence of color or intensity; 0 corresponds to no activity; 0.1 corresponds to a trace of color; 0.5 corresponds to very pale coloration; 1 corresponds to clear but low-intensity coloration; 1.5 corresponds to a degree of coloration intermediate between scores 1 and 2; 2 corresponds to clear coloration of moderate intensity; 2.5 corresponds to a degree of coloration intermediate between scores 2 and 3; 3 corresponds to intense coloration; 3.5 corresponds to a degree of coloration intermediate between scores 3 and 4; 4 corresponds to very intense coloration; conditions: 37° C.
Description: as §1, §2, §3

Listeria welshimeri 023 = assay: as above; design: key: —: the symbol “-” corresponds to the absence of color or intensity; 0 corresponds to no activity; 0.1 corresponds to a trace of color; 0.5 corresponds to very pale coloration; 1 corresponds to clear but low-intensity coloration; 1.5 corresponds to a degree of coloration intermediate between scores 1 and 2; 2 corresponds to clear coloration of moderate intensity; 2.5 corresponds to a degree of coloration intermediate between scores 2 and 3; 3 corresponds to intense coloration; 3.5 corresponds to a degree of coloration intermediate between scores 3 and 4; 4 corresponds to very intense coloration; conditions: 37° C.
Description: as §1, §2, §3

Listeria species = assay: Experiment 3: differentiation of Listeria species in liquid medium
Description: as §1
These substrates were lyophilized in the wells of API-type strips (Registered Trademark). Before use, the substrates contained in the wells were resuspended in an agar-free Columbia-type inoculation medium. […]
as §3

Structure (SMILES)	results as saccharidase substrate paired with an esterase substrate [1]	I (intensity of the color) ([2]; IT 4 h)	I (intensity of the color) ([2]; IT 6 h)	I (intensity of the color) ([2]; IT 8 h)	I (intensity of the color) (Listeria innocua 166; IT 4 h)	I (intensity of the color) (Listeria innocua 166; IT 6 h)	I (intensity of the color) (Listeria innocua 166; IT 8 h)	I (intensity of the color) (Listeria innocua 171; IT 4 h)	I (intensity of the color) (Listeria innocua 171; IT 6 h)	I (intensity of the color) (Listeria innocua 171; IT 8 h)	I (intensity of the color) (Listeria ivanovii 018; IT 4 h)	I (intensity of the color) (Listeria ivanovii 018; IT 6 h)	I (intensity of the color) (Listeria ivanovii 018; IT 8 h)	I (intensity of the color) ([3]; IT 4 h)	I (intensity of the color) ([3]; IT 6 h)	I (intensity of the color) ([3]; IT 8 h)	I (intensity of the color) ([4]; IT 4 h)	I (intensity of the color) ([4]; IT 6 h)	I (intensity of the color) ([4]; IT 8 h)	I (intensity of the color) (Listeria seeligeri 011; IT 4 h)	further results
CCCCCCCCC(=O)Oc1c[nH]c2ccc(Br)c(Cl)c12 [5-Bromo-4-chloro-3-indolyl nonanoate]	–	–	–	–	–	–	–	–	–	–	–	–	–	–	–	–	–	–	–	–	contrast ([1]; together with a saccharidase substrate based on 6-Chloro-3-indolyl, whatever the target activity): best contrast
CC(=O)N[C@H]1[C@H](Oc2c[nH]c3cc(Cl)ccc23)O[C@H](CO)[C@@H](O)[C@@H]1O [6-Chloro-3-indolyl-N-acetyl-β-D-glucosaminide]	best results	–	–	–	–	–	–	–	–	–	–	–	–	–	–	–	–	–	–	–	–
OC[C@H]1O[C@H](Oc2c[nH]c3cc(Cl)ccc23)[C@@H](O)[C@@H](O)[C@@H]1O [6-Chloro-3-indolyl-α-D-mannoside]	best results	–	–	–	–	–	–	–	–	–	–	–	–	–	–	–	–	–	–	–	–
OC[C@H]1O[C@@H](Oc2c[nH]c3cc(Cl)ccc23)[C@H](O)[C@@H](O)[C@@H]1O [6-Chloro-3-indolyl-β-D-glucoside]	best results	–	–	–	–	–	–	–	–	–	–	–	–	–	–	–	–	–	–	–	–
CC(=O)Oc1c[nH]c2ccc(Br)c(Cl)c12 [X-C2, 5-Bromo-4-chloro-3-indolyl acetate]	–	2	2	3	3	4	4	4	4	4	3	3	4	3	4	4	3	4	4	3	I (intensity of the color) (Listeria seeligeri 011; IT 6 h): 3; I (intensity of the color) (Listeria seeligeri 011; IT 8 h): 4; I (intensity of the color) (Listeria welshimeri 023; IT 4 h): 3; I (intensity of the color) (Listeria welshimeri 023; IT 6 h): 4; I (intensity of the color) (Listeria welshimeri 023; IT 8 h): 4
CCCC(=O)Oc1c[nH]c2ccc(Br)c(Cl)c12 [X-C4, 5-Bromo-4-chloro-3-indolyl butyrate]	–	0.5	1	2	0.5	1	2	0.5	1	2	0.5	1	2	2	2	3	1	2	3	0.5	I (intensity of the color) (Listeria seeligeri 011; IT 6 h): 1; I (intensity of the color) (Listeria seeligeri 011; IT 8 h): 2; I (intensity of the color) (Listeria welshimeri 023; IT 4 h): 0.5; I (intensity of the color) (Listeria welshimeri 023; IT 6 h): 1; I (intensity of the color) (Listeria welshimeri 023; IT 8 h): 2; differentiation between L. monocytogenes and other species belonging to the same genus (Listeria species): gave a contrast in color
CC(=O)Oc1c[nH]c2ccccc12 [Y-C2, 3-Indolyl acetate]	–	3	4	4	3	3	4	3	3	4	3	4	4	4	4	4	3	4	4	3	I (intensity of the color) (Listeria seeligeri 011; IT 6 h): 3; I (intensity of the color) (Listeria seeligeri 011; IT 8 h): 4; I (intensity of the color) (Listeria welshimeri 023; IT 4 h): 3; I (intensity of the color) (Listeria welshimeri 023; IT 6 h): 4; I (intensity of the color) (Listeria welshimeri 023; IT 8 h): 4
